According to patent US20250051337A1 (priority 2021, published 2025):

What was measured:
[1] = biological target: T1, STK4 (Homo sapiens (Human), UniProt Q13043); assay: ADP-Glo kinase assay, STK4; assay type: biochemical; conditions: ADP-Glo, 50 μM ATP; read-out: STK4 IC50
How it was run: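 ADP-Glo readout at 50 μM ATP with 50 ng full-length enzyme: STK4 on 300 μg/mL Axltide substrate, STK3 on 250 μg/mL myelin basic protein. Done as three independent runs in triplicate.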

[2] = tested on: YAP/TAZ-TEAD activity (8×GTIIC-luciferase) in HEK293 cells; assay: YAP-TAZ-TEAD luciferase assay; assay type: cell-based; conditions: 10 μM, 48 h, vs DMSO
Method: 8×GTIIC-luciferase was a gift from Stefano Piccolo (Addgene plasmid #34615, http://n2t.net/addgene: 34615: RRID: Addgene_34615). HEK293 cells were transfected with 8×GTIIC-luciferase plasmid and control Renilla luciferase plasmid using jetPRIME transfection reagent (Polyplus-transfection RSA: New York, NY. USA) for 24 h and cultured in Dulbeco's Modified Eagle Media (DMEM) Glutamax supplemented with 10% Fetal Bovine Serum (FBS), antibiotic/antimycotic, and sodium pyruvate (Gibco. Thermo FisherScientific: Waltham. MA. USA). The transfected cells were treated with 10 μM compound in triplicate and incubated for 48 h at 37° C. Firefly and Renilla luminescence were detected with a Dual-Glo Luciferase Assay System (Promega #E2920) according to the manufacturer's recommendations. The ratio of firefly to Renilla luminescence was calculated for each well and normalized to the ratio in control cells incubated with DMSO.
STK3/4 can negatively regulate the activity of the YAP/TAZ-TEAD protein complex and, accordingly, inactivation of these kinases reduces the transcription of YAP/TAZ-TEAD target genes. […] The results confirmed the intracellular on-target activity of our potent compounds for inhibiting STK3 and STK4 activity and targeting gene expression in the Hippo signaling pathway.

[3] = biological target: LRRK2 (Homo sapiens (Human), UniProt Q5S007); assay: NanoBRET intracellular kinase assay, LRRK2; assay type: cell-based; conditions: transfected HEK293 cells, 2 h
Sequence of LRRK2 (Q5S007 whole entry, species assumed, the tested form may be a part): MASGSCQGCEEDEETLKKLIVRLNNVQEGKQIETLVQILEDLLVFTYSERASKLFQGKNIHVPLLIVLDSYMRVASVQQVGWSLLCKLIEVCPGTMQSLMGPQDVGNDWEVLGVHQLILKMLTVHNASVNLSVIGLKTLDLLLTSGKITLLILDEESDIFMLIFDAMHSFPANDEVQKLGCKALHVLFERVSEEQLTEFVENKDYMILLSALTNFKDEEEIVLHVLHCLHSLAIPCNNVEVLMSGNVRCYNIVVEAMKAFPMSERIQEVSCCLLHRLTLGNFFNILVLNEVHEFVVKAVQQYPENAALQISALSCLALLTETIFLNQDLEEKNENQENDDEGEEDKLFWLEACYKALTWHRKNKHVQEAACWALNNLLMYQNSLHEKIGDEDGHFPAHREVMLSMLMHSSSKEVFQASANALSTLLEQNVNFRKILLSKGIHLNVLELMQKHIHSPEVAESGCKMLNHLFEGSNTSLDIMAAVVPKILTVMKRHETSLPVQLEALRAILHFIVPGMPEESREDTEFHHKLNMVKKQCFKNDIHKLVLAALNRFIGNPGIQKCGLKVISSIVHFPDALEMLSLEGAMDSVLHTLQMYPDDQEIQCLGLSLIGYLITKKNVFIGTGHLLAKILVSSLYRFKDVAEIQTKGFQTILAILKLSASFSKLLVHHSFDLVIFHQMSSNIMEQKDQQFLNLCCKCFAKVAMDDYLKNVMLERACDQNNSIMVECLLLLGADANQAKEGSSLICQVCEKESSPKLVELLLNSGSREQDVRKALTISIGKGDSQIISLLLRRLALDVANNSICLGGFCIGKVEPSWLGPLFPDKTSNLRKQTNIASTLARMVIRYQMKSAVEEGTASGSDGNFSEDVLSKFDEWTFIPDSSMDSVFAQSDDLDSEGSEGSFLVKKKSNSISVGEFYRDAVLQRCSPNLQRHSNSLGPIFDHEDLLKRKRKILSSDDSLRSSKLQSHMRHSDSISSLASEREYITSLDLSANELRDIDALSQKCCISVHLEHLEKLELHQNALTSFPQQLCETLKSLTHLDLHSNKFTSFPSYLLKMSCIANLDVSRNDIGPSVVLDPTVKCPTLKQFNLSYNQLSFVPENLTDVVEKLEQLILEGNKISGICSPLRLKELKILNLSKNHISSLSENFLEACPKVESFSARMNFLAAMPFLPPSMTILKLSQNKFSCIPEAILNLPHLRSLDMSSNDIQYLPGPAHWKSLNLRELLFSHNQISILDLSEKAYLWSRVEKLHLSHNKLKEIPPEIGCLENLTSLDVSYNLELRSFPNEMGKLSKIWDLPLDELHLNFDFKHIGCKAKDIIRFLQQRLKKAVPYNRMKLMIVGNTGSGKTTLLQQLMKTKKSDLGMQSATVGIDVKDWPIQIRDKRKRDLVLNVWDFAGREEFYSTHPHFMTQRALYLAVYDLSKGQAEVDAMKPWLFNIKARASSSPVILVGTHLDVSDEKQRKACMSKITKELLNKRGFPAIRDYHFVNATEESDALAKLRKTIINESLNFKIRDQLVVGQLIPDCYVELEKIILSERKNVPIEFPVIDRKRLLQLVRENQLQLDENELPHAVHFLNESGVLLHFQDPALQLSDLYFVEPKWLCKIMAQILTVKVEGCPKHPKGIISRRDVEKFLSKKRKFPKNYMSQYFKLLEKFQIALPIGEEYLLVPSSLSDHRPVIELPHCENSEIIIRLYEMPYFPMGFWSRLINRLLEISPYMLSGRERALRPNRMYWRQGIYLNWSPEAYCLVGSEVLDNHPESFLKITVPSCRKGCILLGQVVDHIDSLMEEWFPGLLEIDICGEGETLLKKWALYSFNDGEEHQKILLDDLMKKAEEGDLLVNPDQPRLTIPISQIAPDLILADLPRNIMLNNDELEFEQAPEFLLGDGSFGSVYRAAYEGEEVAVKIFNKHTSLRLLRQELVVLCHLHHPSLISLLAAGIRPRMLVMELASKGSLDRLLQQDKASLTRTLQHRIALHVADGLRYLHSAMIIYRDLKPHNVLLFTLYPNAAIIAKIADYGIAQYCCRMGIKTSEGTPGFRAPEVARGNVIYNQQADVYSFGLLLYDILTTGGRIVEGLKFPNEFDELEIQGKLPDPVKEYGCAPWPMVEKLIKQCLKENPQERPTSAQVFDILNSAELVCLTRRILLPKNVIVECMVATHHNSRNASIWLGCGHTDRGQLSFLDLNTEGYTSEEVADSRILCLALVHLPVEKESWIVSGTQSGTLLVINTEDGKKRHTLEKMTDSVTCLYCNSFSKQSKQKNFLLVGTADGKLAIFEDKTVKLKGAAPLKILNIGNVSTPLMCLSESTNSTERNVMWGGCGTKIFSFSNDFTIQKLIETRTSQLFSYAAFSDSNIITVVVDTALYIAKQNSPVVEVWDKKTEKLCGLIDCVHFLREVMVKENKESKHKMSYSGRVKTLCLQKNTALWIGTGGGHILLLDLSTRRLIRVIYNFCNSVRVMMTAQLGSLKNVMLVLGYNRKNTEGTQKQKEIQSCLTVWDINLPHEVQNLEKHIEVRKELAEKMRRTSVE
Method: Full-length STK3, STK4, and LRRK2 kinase was cloned in-frame with a C-terminal NanoLuc-fusion (Promega: Madison, WI, USA) and the plasmid was transfected into HEK293T cells using FuGENE HD (Promega, E2312). After 20 h, transfected cells were mixed with inhibitors and 50 nM NanoBRET Kinase Tracer K10 (Promega) and reseeded at a density of 2× 10^5 cells/mL in Opti-Minimal Essential Medium (MEM) without phenol red (Life Technologies; Carlsbad, CA, USA) in 384-well plates (Greiner 781-207; Kremsmunster, Austria). After 2 h at 37° C. in a 5% CO2 atmosphere, NanoBRET NanoGlo Substrate+Extra-cellular NanoLuc Inhibitor (Promega, N2540) was added, and filtered luminescence was measured on a PHERAstar plate reader (BMG Labtech; Ortenberg, Germany) equipped with a lumi-nescence filter pair (450 nm BP filter (donor) and 610 nm LP filter (acceptor)).
To confirm cellular potency for compounds described herein, the […] were used to detect engagement of STK3 and STK4 in live cells using the NanoBRET™ intracellular kinase assay, marking the first report of a NanoBRET assay for STK3 and STK4. This assay measured the apparent affinity of test compounds by competitive displacement of the NanoBRET™ tracer, reversibly bound to a NanoLuc® luciferase-kinase fusion in cells. To evaluate potential off-target activity of the inhibitors, the inhibition of LRRK2 in live cells by the STK3/4 inhibitors compounds described herein were measured. Cultured HEK293 cells were either transfected with NanoLuc®-STK3 fusion vector, NanoLuc®-STK4 fusion, or with NanoLuc®-LRRK2 vector for 24 h. A 50 nM tracer and these compounds were added to cells and incubated for 2 h. These compounds tested in the assays decreased the NanoBRET™ signal for both STK3 and STK4 at varying potencies and confirming cellular target engagement of STK3/4.

[4] = biological target: T1, STK4; assay: NanoBRET intracellular kinase assay, STK4; assay type: cell-based; conditions: transfected HEK293 cells, 2 h
Method: Full-length STK3, STK4, and LRRK2 kinase was cloned in-frame with a C-terminal NanoLuc-fusion (Promega: Madison, WI, USA) and the plasmid was transfected into HEK293T cells using FuGENE HD (Promega, E2312). […] After 2 h at 37° C. in a 5% CO2 atmosphere, NanoBRET NanoGlo Substrate+Extra-cellular NanoLuc Inhibitor (Promega, N2540) was added, and filtered luminescence was measured on a PHERAstar plate reader (BMG Labtech; Ortenberg, Germany) equipped with a lumi-nescence filter pair (450 nm BP filter (donor) and 610 nm LP filter (acceptor)).
This assay measured the apparent affinity of test compounds by competitive displacement of the NanoBRET™ tracer, reversibly bound to a NanoLuc® luciferase-kinase fusion in cells. To evaluate potential off-target activity of the inhibitors, the inhibition of LRRK2 in live cells by the STK3/4 inhibitors compounds described herein were measured. […] A 50 nM tracer and these compounds were added to cells and incubated for 2 h.

[5] = tested on: phosphorylated MOB1 (Thr35) in HEK293 cells; assay: Western blot analysis of p-MOB1 in HEK293 cells; assay type: cell-based; conditions: 10 μM, 4 h, then H2O2 50 μM 2 h, vs DMSO
Method: Cells were harvested by pipetting, pelleted by centrifugation at 1400 rpm for 4 min, and lysed in RIPA buffer for 10 min at room temperature. The lysates were centrifuged at 12,000×g at room temperature (RT) for 10 min and the supernatants were recovered. Protein concentrations in the supernatants were determined using a BCA assay (Pierce/Thermo Scientific). Proteins were separated on NovexTM WedgeWellTM 4-20% Tris-Glycine Gels (Invitrogen; Carlsbad, CA, USA) and transferred to polyvinylidene difluoride (Trans-Blot® TurboTM Transfer Pack) membranes. […] Danvers. MA. USA). Blots were rinsed three times with TBST and then incubated in 5% nonfat milk containing horseradish peroxidase (HRP)-conjugated mouse anti-rabbit IgG secondary Ab (Cell Signaling Technology) for 1 h at RT. Blots were washed three times with TBST, developed using Pierce® ECL Western Blotting reagent, and imaged and analyzed using with ImageJ software. Quantitative data are expressed as the level of phosphorylated MOB1 normalized to total MOB1. To confirm that the cellular mechanism of action of our inhibitors was through inhibition of Hippo pathway signaling. […] Inhibition of STK3/4 in vitro and in vivo can produce decreased phosphorylation of the Hippo pathway adapter protein MOB1 at […].

T1 sequence (Q13043 whole entry): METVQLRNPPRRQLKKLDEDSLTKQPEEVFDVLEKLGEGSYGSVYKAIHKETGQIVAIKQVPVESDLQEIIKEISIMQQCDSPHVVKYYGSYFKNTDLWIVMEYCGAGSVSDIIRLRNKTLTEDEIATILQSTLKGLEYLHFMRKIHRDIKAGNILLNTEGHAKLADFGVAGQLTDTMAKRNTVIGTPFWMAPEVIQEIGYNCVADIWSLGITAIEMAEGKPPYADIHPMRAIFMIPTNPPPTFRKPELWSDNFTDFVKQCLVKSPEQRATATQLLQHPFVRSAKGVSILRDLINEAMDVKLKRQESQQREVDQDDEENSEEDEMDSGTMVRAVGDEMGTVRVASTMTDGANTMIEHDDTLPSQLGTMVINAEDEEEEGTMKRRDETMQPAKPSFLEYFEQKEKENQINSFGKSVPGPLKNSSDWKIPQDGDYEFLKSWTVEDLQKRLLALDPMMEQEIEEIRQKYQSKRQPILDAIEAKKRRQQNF

SMILES	IC50 [1] [nM]	YAP/TAZ-TEAD activity (luciferase reporter) [2]	IC50 [3] [nM]	IC50 [4] [nM]	relative expression level of phosphorylated MOB1 [5]	LRRK2: IC50 [3]
Clc1cccc(-c2c[nH]c3ncnc(N4CCOCC4)c23)c1 [Compound 6, 4-(5-(3-Chlorophenyl)-7H-pyrrolo[2,3-d]pyrimidin-4-yl)morpholine]	< 1000	marked increase	≤ 1000	< 1000	–	–
NC(=O)c1cccc(-c2c[nH]c3ncnc(N4CCOCC4)c23)c1 [Compound 11, 3-(4-Morpholino-7H-pyrrolo[2,3-d]pyrimidin-5-yl)benzamide]	–	marked increase	≥ 2000	–	–	–
OC1CCN(c2ncnc3[nH]cc(-c4cccc(Cl)c4)c23)CC1 [Compound 16, 1-(5-(3-Chlorophenyl)-7H-pyrrolo[2,3-d]pyrimidin-4-yl)piperidin-4-ol]	< 1000	marked increase	–	< 1000	significant reduction	B (B: IC50 is >2000 nM and <1000 nM)
Clc1cccc(-c2c[nH]c3nccc(N4CCOCC4)c23)c1 [Compound 23, 4-(3-(3-chlorophenyl)-1H-pyrrolo[2,3-b]pyridin-4-yl)morpholine]	< 1000	marked increase	≤ 1000	< 1000	significant reduction	–
CC(=O)NC1CCN(c2ncnc3[nH]cc(-c4cccc(Cl)c4)c23)CC1 [Compound 105, N-(1-(5-(3-chlorophenyl)-7H-pyrrolo[2,3-d]pyrimidin-4-yl)piperidin-4-yl)acetamide]	< 1000	–	–	< 1000	significant reduction	B (B: IC50 is >2000 nM and <1000 nM)
